# In patent publication US20100168468A1, “WRINKLE-PREVENTING AND IMPROVING COMPOSITION” (Kyowa Hakko Kirin Co., Ltd., priority 2005, published 2010):
# System: Fibroblasts
# Test: Production amount of type I collagen by fibroblasts
# Assay type: cell-based
# Settings: cultured for two days in DMEM without growth factors; amount without sarcosine set as 100 (FIG. 4)
# Protocol: The production of collagen was measured in the following method. Fibroblasts were plated on 24 wells, and were allowed to stand while culturing until the cells fully adhered. Then, the culture liquid (DMEM supplemented with growth factors) was replaced with a medium (DMEM without growth factors) to which the drug (sarcosine) was added to the desired concentration, and cultured for two days. The culture supernatant was removed, and the production amount of type I collagen was determined using the TAKARA's Procollagen type I-Cppeptide EIA KIT. Cell counts were determined by measuring the amount of DNA using Hoechst and then converting it to a cell count. Finally the production amount of collagen was compared as the production amount of collagen per unit cell.
structure (smiles),measurement,value
CNCC(=O)O [sarcosine],production amount of collagen per unit cell,increases with sarcosine addition in dose dependent manner
